Literature values, collected in patent US20090062294A1, “HETEROARYL-SUBSTITUTED UREA MODULATORS OF FATTY ACID AMIDE HYDROLASE” (priority 2007, published 2009).

Tests used:
spasticity = conditions: model of multiple sclerosis; cited from earlier work
neuropathic pain = conditions: rats; cited from earlier work
[1] = tested on: acute thermal nociception; conditions: rats; cited from earlier work
thermal nociception [2] = conditions: rats; cited from earlier work
FAAH = molecular target: T1, FAAH (Homo sapiens, UniProt O00519); conditions: cited from earlier work
T1 sequence (O00519 1-579): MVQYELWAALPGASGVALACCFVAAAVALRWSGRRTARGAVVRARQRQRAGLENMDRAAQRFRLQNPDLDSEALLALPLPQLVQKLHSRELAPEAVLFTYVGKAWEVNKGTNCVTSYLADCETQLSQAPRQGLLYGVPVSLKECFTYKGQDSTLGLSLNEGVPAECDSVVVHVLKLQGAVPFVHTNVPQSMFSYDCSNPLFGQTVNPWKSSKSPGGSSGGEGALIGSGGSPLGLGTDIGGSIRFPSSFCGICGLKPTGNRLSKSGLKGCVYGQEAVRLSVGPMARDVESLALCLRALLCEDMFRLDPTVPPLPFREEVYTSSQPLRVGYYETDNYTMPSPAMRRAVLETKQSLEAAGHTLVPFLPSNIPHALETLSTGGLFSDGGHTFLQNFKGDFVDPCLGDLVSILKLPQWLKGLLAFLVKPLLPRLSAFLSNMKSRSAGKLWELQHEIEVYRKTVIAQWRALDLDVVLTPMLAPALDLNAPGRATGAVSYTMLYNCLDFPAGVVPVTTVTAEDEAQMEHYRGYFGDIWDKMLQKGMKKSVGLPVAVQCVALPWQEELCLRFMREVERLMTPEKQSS

thermal nociception [3] = conditions: rats; cited from earlier work; remark: listed apart in the source
anxiety = conditions: rats; cited from earlier work
pain = conditions: rat; cited from earlier work

For CCCCCCCCCCCCCCCCS(=O)(=O)F [AM374], the “spasticity in CREAE mice” value (spasticity) is listed as “significantly reduce spasticity”.

In the case of Cc1nc(-c2ccccc2)c(-c2ccccc2)n1CCCCCCNC(=O)Oc1ccccc1F [BMS-1], the “analgesic effect in Chung spinal nerve ligation model” value (neuropathic pain) is listed as “analgesic effect” and the “analgesic effect in Hargraves test” value [1] is listed as “analgesic effect”.

For O=C(CCCCCCc1ccccc1)c1ncc(-c2ccccn2)o1 [OL-135], the “analgesic efficacy/activity in hot plate test” value (thermal nociception [2]) is given as “analgesic activity”, the “inhibition of FAAH” value (FAAH) is given as “potent inhibitor” and the “analgesic activity in tail emersion test” value (thermal nociception [3]) is given as “analgesic activity”.

For NC(=O)c1cccc(-c2cccc(OC(=O)NC3CCCCC3)c2)c1 [URB-597], the “efficacy in zero plus maze model of anxiety” value (anxiety) is given as “efficacy”, the “analgesic efficacy/activity in hot plate test” value (thermal nociception [2]) is given as “analgesic efficacy” and the “analgesic efficacy in formalin test” value (pain) is given as “analgesic efficacy”.
